For experiment [1], the system named is Spontaneously hypertensive rats (SHR). As to the kind of experiment: Acute efficacy in spontaneously hypertensive rats (SHR): telemetry blood pressure lowering after a single oral dose. Format: in vivo, rat. The method, boiled down: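 Values are the maximum peak fall in systolic pressure after one oral dose (mpk), computed hourly against baseline from a vehicle dose given the day before. Rats were conscious, male, spontaneously hypertensive, with femoral-aortic telemetry recording 30 s every 10 min, 14 days post-surgery.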

Experiment [2] has as its target T1, sGC α1/β1 heterodimer (Homo sapiens, UniProt Q02108+Q02153).
T1 construct: expressed in transfected cells; host or cells: CHO-K1 (clone #7, CHO-K1/sGC)
T1 sequence (Q02108 1-690): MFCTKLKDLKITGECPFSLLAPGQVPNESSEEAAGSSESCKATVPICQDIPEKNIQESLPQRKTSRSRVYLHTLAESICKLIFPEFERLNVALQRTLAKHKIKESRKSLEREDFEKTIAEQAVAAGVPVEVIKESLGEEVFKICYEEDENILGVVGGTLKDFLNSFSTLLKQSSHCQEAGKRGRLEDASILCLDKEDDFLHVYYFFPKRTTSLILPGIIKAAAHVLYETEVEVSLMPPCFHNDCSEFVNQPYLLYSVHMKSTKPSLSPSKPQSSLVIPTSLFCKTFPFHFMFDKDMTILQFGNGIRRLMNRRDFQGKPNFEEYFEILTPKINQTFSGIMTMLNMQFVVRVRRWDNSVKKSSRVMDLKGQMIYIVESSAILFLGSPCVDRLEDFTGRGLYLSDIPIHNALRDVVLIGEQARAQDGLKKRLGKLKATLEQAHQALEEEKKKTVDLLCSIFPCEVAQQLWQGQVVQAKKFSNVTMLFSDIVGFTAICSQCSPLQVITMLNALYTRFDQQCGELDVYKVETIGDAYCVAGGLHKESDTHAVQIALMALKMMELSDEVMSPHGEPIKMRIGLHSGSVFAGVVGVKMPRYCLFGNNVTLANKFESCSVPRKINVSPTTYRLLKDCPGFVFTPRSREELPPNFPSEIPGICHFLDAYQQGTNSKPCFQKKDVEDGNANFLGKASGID
T1 sequence (Q02153 1-619): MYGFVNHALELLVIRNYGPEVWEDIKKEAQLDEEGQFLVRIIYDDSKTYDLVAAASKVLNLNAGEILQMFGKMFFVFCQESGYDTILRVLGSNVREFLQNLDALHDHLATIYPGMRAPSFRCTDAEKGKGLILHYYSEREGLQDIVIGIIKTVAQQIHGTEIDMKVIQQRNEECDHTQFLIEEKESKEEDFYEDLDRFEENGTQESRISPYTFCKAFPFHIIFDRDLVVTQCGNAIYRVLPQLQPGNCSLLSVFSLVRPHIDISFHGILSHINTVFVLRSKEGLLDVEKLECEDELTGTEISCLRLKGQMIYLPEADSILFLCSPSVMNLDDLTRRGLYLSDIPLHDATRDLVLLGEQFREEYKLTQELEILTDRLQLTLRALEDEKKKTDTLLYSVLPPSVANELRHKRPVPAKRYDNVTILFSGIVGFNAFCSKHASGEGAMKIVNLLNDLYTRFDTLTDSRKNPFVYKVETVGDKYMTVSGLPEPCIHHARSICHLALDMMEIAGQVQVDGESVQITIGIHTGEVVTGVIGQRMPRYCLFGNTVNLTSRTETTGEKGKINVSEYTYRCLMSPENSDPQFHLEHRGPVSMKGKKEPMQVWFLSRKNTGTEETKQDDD
In words: Cell-based sGC functional assay (CASA assay): cGMP generation in CHO-K1/sGC cells, HTRF detection. To be noted: for Emax: CHO-K1, percent activation relative to standard Compound A in CHO-K1/sGC cells, read-out: % Act.; for EC50: inflection point (IP) of cGMP generation in CHO-K1/sGC cells, 4P fit, activity expressed as percentage of Compound A. In a few lines: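 cGMP was quantified by HTRF after 1 hr, 37° C exposure of thawed CHO-K1 cells expressing sGC α1/β1 to compound, with or without 1 μM DETA-NO. IBMX (0.5 mM) blocked cGMP breakdown, and DMSO was 2.5% final. Percent of standard Compound A's maximal cGMP was fitted (4P) for inflection point.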

In general, EC50 refers to the concentration at which the effect is half-maximal. A higher EC50 goes with weaker potency. As for `Cc1ccc(C2(C)C(=O)Nc3nc(-c4cn5ccnc5c(CCC(F)(F)F)n4)nc(N)c32)cc1` (stereo not drawn) [Example 185A, 4-amino-5-methyl-5-(p-tolyl)-2-(8-(3,3,3-trifluoropropyl)imidazo[1,2-a]pyrazin-6-yl)-5H-pyrrolo[2,3-d]pyrimidin-6(7H)-one], the “Maximum peak decrease of systolic blood pressure (SBP) in SHR, Cat.” value (shortened to “Maximum peak decrease”) in experiment [1] (P.O. 3.0 mpk) was “C (Category C=SBP in SHRs>40 mmHg)”. Also, in experiment [2], the Emax was determined as 132% and the 50% effective concentration (EC50) was 235 nM.

`CC1(c2ccc(Cl)c(Cl)c2)C(=O)Nc2nc(-c3cn4ccnc4c(CCC(F)(F)F)n3)nc(N)c21` (stereo not drawn) [Example 186A, 4-amino-5-(3,4-dichlorophenyl)-5-methyl-2-(8-(3,3,3-trifluoropropyl)imidazo[1,2-a]pyrazin-6-yl)-5H-pyrrolo[2,3-d]pyrimidin-6(7H)-one]: in experiment [1] (P.O. 1.0 mpk), the “Maximum peak decrease” value is listed as “B (Category B=SBP in SHRs 20-40 mmHg)”. In experiment [2], the Emax was determined as 129% and a half-maximal effect (EC50) was put at 207 nM.

`CC1(c2ccccc2)C(=O)Nc2nc(-c3cn4ccnc4c(CCC(F)(F)F)n3)nc(N)c21` (stereo not drawn) [Example 188B, 4-amino-5-methyl-5-phenyl-2-(8-(3,3,3-trifluoropropyl)imidazo[1,2-a]pyrazin-6-yl)-5H-pyrrolo[2,3-d]pyrimidin-6(7H)-one]: the “Maximum peak decrease” value in experiment [1] (P.O. 3.0 mpk) is listed as “B (Category B=SBP in SHRs 20-40 mmHg)”. In experiment [2], the Emax stood at 154% and the half-maximal effective concentration (EC50) stood at 304 nM.

On to `CC1(c2ccc(C(F)(F)F)cc2)C(=O)Nc2nc(-c3cn4ccnc4c(CCC(F)(F)F)n3)nc(N)c21` (stereo not drawn) [Example 189B, 4-amino-5-methyl-5-(4-(trifluoromethyl)phenyl)-2-(8-(3,3,3-trifluoropropyl)imidazo[1,2-a]pyrazin-6-yl)-5H-pyrrolo[2,3-d]pyrimidin-6(7H)-one], for which, in experiment [1] (P.O. 3.0 mpk), the “Maximum peak decrease” value is listed as “B (Category B=SBP in SHRs 20-40 mmHg)”. Moreover, in experiment [2], the Emax stood at 143% and the midpoint of the response, the EC50, lay at 211 nM.

`Nc1nc(-c2cn3ccnc3c(CCC(F)(F)F)n2)nc2c1C(c1ccc(Cl)c(F)c1)(C1CC1)C(=O)N2` (stereo not drawn) [Example 190A, 4-amino-5-(4-chloro-3-fluorophenyl)-5-cyclopropyl-2-(8-(3,3,3-trifluoropropyl)imidazo[1,2-a]pyrazin-6-yl)-5H-pyrrolo[2,3-d]pyrimidin-6(7H)-one]: in experiment [1] (P.O. 3.0 mpk), the “Maximum peak decrease” value is recorded as “C (Category C=SBP in SHRs>40 mmHg)”. In experiment [2], the Emax was 90% and the EC50 is 114 nM.

Consider `CC1(c2ccc(F)c(Cl)c2)C(=O)Nc2nc(-c3cn4ccnc4c(CCC(F)(F)F)n3)nc(N)c21` (stereo not drawn) [Example 193B, 4-amino-5-(3-chloro-4-fluorophenyl)-5-methyl-2-(8-(3,3,3-trifluoropropyl)imidazo[1,2-a]pyrazin-6-yl)-5H-pyrrolo[2,3-d]pyrimidin-6(7H)-one], for which the “Maximum peak decrease” value in experiment [1] (P.O. 3.0 mpk) is reported as “B (Category B=SBP in SHRs 20-40 mmHg)”. For the same compound, in experiment [2], the Emax worked out at 111% and it took 355 nM to reach a half-maximal effect (EC50).

As to `Nc1nc(-c2cn3ccnc3c(CCC(F)(F)F)n2)nc2c1C(c1ccc(F)cc1)(C1CC1)C(=O)N2` (stereo not drawn) [Example 194B, 4-amino-5-cyclopropyl-5-(4-fluorophenyl)-2-(8-(3,3,3-trifluoropropyl)imidazo[1,2-a]pyrazin-6-yl)-5H-pyrrolo[2,3-d]pyrimidin-6(7H)-one], the “Maximum peak decrease” value in experiment [1] (P.O. 3.0 mpk) was “C (Category C=SBP in SHRs>40 mmHg)”. In addition, in experiment [2], the Emax is 116% and the EC50 was determined as 268 nM.

For `CCC1(c2ccc(Br)cc2)C(=O)Nc2nc(-c3cn4ccnc4c(CCC(F)(F)F)n3)nc(N)c21` (stereo not drawn) [Example 197A, 4-amino-5-(4-bromophenyl)-5-ethyl-2-(8-(3,3,3-trifluoropropyl)imidazo[1,2-a]pyrazin-6-yl)-5H-pyrrolo[2,3-d]pyrimidin-6(7H)-one], the “Maximum peak decrease” value in experiment [1] (P.O. 3.0 mpk) is “B (Category B=SBP in SHRs 20-40 mmHg)”. In experiment [2], the Emax worked out at 66% and the midpoint of the response, the EC50, lay at 163 nM.

Turning to `Nc1nc(-c2cn3ccnc3c(CCC(F)(F)F)n2)nc2c1C(c1ccc(Cl)cc1)(C1CC1)C(=O)N2` (stereo not drawn) [Example 198B, 4-amino-5-(4-chlorophenyl)-5-cyclopropyl-2-(8-(3,3,3-trifluoropropyl)imidazo[1,2-a]pyrazin-6-yl)-5H-pyrrolo[2,3-d]pyrimidin-6(7H)-one], the “Maximum peak decrease” value in experiment [1] (P.O. 1.0 mpk) is “B (Category B=SBP in SHRs 20-40 mmHg)”. Besides, in experiment [2], the Emax amounted to 112% and the 50% effective concentration (EC50) was 492 nM.

For the compound `CCC1(c2ccc(Cl)c(F)c2)C(=O)Nc2nc(-c3cn4ccnc4c(CCC(F)(F)F)n3)nc(N)c21` (stereo not drawn) [Example 199A, 4-amino-5-(4-chloro-3-fluorophenyl)-5-ethyl-2-(8-(3,3,3-trifluoropropyl)imidazo[1,2-a]pyrazin-6-yl)-5H-pyrrolo[2,3-d]pyrimidin-6(7H)-one], the “Maximum peak decrease” value in experiment [1] (P.O. 3.0 mpk) is reported as “B (Category B=SBP in SHRs 20-40 mmHg)”. Moreover, in experiment [2], the Emax was 101% and the 50% effective concentration (EC50) stood at 544 nM.

With `CC1(c2ccc(Cl)cn2)C(=O)Nc2nc(-c3cn4ccnc4c(CCC(F)(F)F)n3)nc(N)c21` (stereo not drawn) [Example 201A, 4-amino-5-(5-chloropyridin-2-yl)-5-methyl-2-(8-(3,3,3-trifluoropropyl)imidazo[1,2-a]pyrazin-6-yl)-5H-pyrrolo[2,3-d]pyrimidin-6(7H)-one], in experiment [1] (P.O. 3.0 mpk), the “Maximum peak decrease” value is recorded as “C (Category C=SBP in SHRs>40 mmHg)”. In experiment [2], the Emax is 140% and the midpoint of the response, the EC50, lay at 928 nM.

Take `CC1(c2ccc(F)cn2)C(=O)Nc2nc(-c3cn4ccnc4c(CCC(F)(F)F)n3)nc(N)c21` (stereo not drawn) [Example 202B, 4-amino-5-(5-fluoropyridin-2-yl)-5-methyl-2-(8-(3,3,3-trifluoropropyl)imidazo[1,2-a]pyrazin-6-yl)-5H-pyrrolo[2,3-d]pyrimidin-6(7H)-one]: the “Maximum peak decrease” value in experiment [1] (P.O. 3.0 mpk) is on record as “B (Category B=SBP in SHRs 20-40 mmHg)”. Also, in experiment [2], the Emax was found to be 91% and the 50% effective concentration (EC50) worked out at 870 nM.

As to `Nc1nc(-c2cn3ccnc3c(CCCC(F)(F)F)n2)nc2c1C(c1ccc(F)cc1)(C1CC1)C(=O)N2` (stereo not drawn) [Example 205B, 4-amino-5-cyclopropyl-5-(4-fluorophenyl)-2-(8-(4,4,4-trifluorobutyl)imidazo[1,2-a]pyrazin-6-yl)-5H-pyrrolo[2,3-d]pyrimidin-6(7H)-one], in experiment [1] (P.O. 0.3 mpk), the “Maximum peak decrease” value is recorded as “C (Category C=SBP in SHRs>40 mmHg)”. In experiment [2], the Emax came to 127% and the EC50 was 20 nM.

For `CC1(c2ccc(OC(F)(F)F)cc2)C(=O)Nc2nc(-c3cn4ccnc4c(CCCC(F)(F)F)n3)nc(N)c21` (stereo not drawn) [Example 207B, 4-amino-5-methyl-2-(8-(4,4,4-trifluorobutyl)imidazo[1,2-a]pyrazin-6-yl)-5-(4-(trifluoromethoxy)phenyl)-5H-pyrrolo[2,3-d]pyrimidin-6(7H)-one], in experiment [1] (P.O. 0.3 mpk), the “Maximum peak decrease” value is given as “B (Category B=SBP in SHRs 20-40 mmHg)”. Further, in experiment [2], the Emax came to 121% and the EC50 is 44 nM.

As to `CC1(c2ccc(Cl)cn2)C(=O)Nc2nc(-c3cn4ccnc4c(CCCC(F)(F)F)n3)nc(N)c21` (stereo not drawn) [Example 208A, 4-amino-5-(5-chloropyridin-2-yl)-5-methyl-2-(8-(4,4,4-trifluorobutyl)imidazo[1,2-a]pyrazin-6-yl)-5H-pyrrolo[2,3-d]pyrimidin-6(7H)-one], in experiment [1] (P.O. 0.3 mpk), the “Maximum peak decrease” value is listed as “C (Category C=SBP in SHRs>40 mmHg)”. Besides, in experiment [2], the Emax worked out at 88% and it took 36 nM to reach a half-maximal effect (EC50).
